Measurements published in patent US8324172B2, “G protein coupled receptor agonists and antagonists and methods of activating and inhibiting G protein coupled receptors using the same” (Tufts Medical Center, Inc., priority 2000, dated 2012).
Positions count from the first letter of the chain named. Entries after “also recorded” stand apart in the source; their conditions may differ. Where a SMILES comes first, the peptide text is derived from it. Where no end group is shown, it is not given here. The star is where a group is joined. Palmitoyl = CCCCCCCCCCCCCCCC(=O)*

Experiments:
[1] = target: T1, substance P (Sub-P) (Homo sapiens, UniProt P25103); assay: InsP formation in COS7 cells expressing substance P receptor; type: cell-based
T1 construct: expressed in transfected cells; host or cells: COS7, transient

[2] = target: T2, cholecystokinin B (CCKB) (Homo sapiens, UniProt P32239); assay: InsP formation in COS7 cells expressing CCKB; type: cell-based
T2 construct: expressed in transfected cells; host or cells: COS7, transient
T2 sequence (P32239 1-447): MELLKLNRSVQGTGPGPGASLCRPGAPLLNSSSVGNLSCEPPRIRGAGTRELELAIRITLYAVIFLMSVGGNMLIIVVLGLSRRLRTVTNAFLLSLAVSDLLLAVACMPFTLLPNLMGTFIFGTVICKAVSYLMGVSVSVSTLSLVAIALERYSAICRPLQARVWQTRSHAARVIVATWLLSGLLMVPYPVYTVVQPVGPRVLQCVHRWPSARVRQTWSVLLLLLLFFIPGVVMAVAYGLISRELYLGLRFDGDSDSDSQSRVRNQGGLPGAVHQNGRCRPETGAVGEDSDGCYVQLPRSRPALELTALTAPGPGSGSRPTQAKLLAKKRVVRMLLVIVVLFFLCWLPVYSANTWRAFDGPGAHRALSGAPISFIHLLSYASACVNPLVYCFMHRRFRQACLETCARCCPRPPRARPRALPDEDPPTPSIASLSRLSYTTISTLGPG

[3] = target: T3, PAR4 (Homo sapiens, UniProt Q96RI0); assay: InsP formation in COS7 cells expressing PAR4; type: cell-based; parameters: expressed in transfected cells; host or cells: COS7, transient; conditions: COS7 cells
T3 sequence (Q96RI0 18-385): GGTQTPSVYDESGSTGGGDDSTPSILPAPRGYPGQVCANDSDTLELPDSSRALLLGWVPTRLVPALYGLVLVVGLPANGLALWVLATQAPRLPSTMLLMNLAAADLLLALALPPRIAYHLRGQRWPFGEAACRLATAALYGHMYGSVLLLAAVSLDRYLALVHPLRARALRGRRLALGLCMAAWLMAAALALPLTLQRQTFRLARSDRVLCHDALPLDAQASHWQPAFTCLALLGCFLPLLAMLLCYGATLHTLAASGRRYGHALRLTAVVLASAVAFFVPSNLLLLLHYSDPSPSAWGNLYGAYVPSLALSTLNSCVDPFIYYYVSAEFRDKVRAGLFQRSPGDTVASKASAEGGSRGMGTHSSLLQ

[4] = target: T4, somatostatin receptor (SSTR2) (Rattus norvegicus, UniProt P30680); assay: InsP formation in COS7 cells expressing SSTR2; type: cell-based; conditions: COS7 cells
T4 construct: expressed in transfected cells; host or cells: COS7, transient

[5] = test system: platelets; assay: Platelet intracellular Ca2+, agonist activity of peptides
[6] = test system: human platelets
[7] = target: T5, PAR2 (Homo sapiens, UniProt P55085); assay: InsP formation in COS7 cells expressing PAR2; type: cell-based; conditions: 0.1-10 micromolar pepducin
T5 construct: expressed in transfected cells; host or cells: COS7 (transient)
T5 sequence (P55085 26-397): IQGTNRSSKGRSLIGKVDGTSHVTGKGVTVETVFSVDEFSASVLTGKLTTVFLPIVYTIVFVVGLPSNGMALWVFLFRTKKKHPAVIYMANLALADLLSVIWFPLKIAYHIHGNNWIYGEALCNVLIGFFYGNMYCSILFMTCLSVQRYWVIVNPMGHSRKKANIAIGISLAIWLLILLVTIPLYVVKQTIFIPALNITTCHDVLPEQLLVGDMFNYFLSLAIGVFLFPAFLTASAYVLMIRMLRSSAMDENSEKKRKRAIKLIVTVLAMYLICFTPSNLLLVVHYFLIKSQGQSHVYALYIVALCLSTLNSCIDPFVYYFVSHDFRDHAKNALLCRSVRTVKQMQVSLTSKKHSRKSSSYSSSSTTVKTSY

[8] = target: T6, PAR1 (Homo sapiens, UniProt P25116); assay: Inhibition of PAR1-dependent platelet Ca2+ signal; type: cell-based; conditions: SFLLRN (or thrombin) after peptide pre-treatment
T6 construct: expressed in transfected cells
T6 sequence (P25116 22-425): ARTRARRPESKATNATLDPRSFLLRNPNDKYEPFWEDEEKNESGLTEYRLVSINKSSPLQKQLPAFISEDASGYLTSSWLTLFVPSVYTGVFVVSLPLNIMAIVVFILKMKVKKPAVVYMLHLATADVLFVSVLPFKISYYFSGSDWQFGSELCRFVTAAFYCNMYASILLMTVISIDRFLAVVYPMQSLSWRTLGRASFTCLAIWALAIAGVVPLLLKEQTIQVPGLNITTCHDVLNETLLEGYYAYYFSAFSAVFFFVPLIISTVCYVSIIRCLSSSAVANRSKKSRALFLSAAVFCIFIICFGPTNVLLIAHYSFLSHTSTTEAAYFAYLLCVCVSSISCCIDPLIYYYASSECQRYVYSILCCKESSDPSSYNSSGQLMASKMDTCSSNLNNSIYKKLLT
Method: Platelet Ca2+ measurements were performed as in Example 1.
The integrated Ca^2+ response for the individual treatments are relative to the full Ca^2+ responses for each agonist (100%) recorded in the absence of P4pal-10 (top trace).

[9] = target: T6, PAR1; assay: InsP formation (PLC-β) in Rat1 fibroblasts expressing human PAR1; type: cell-based
[10] = test system: untransfected Rat1 cells / COS7 cells without PAR1; assay: InsP formation in COS7 cells or Rat1 fibroblasts in the absence of the PAR1 receptor; type: cell-based; conditions: for InsP stimulation in the absence of the PAR1 receptor: COS7 cells or Rat1 fibroblasts
[11] = target: T7, S309P PAR1 (Homo sapiens, UniProt P25116, S309P); assay: InsP formation in COS7 cells expressing S309P PAR1 mutant; type: cell-based; conditions: relative to wild type PAR1
T7 construct: expressed in transfected cells; host or cells: COS7, transient
T7 sequence (P25116 22-425 S309P): T6 sequence (P25116 22-425) with S288P

[12] = test system: delta377 PAR1; assay: InsP formation in COS7 cells expressing delta377 (C-tail deleted) PAR1 mutant; type: cell-based, human
[13] = target: T8, cholecystokinin A (CCKA) (Homo sapiens, UniProt P32238); assay: InsP formation in COS7 cells expressing CCKA; type: cell-based
T8 construct: expressed in transfected cells; host or cells: COS7, transient
T8 sequence (P32238 1-428): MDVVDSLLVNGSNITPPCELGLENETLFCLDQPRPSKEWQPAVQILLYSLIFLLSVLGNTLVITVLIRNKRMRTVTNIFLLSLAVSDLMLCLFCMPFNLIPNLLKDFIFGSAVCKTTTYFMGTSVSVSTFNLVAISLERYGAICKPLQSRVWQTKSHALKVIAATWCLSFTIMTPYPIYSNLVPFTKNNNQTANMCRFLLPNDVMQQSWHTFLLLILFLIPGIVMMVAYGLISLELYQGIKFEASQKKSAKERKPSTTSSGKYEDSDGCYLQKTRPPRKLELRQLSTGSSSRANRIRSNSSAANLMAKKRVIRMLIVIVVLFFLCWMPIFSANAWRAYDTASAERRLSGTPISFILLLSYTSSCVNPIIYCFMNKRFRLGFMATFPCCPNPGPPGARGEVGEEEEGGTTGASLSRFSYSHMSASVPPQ

[14] = target: T9, MC4R (Homo sapiens, UniProt P32245); assay: Adenylate cyclase activity in COS7 fibroblasts transfected with MC4R; type: cell-based
T9 construct: expressed in transfected cells; host or cells: COS7, transient

[15] = target: T10, P2Y12 ADP receptor (Homo sapiens, UniProt Q9H244); assay: Irreversible aggregation of SFLLRN-activated human platelets (ADP autocrine response); type: cell-based; conditions: 3 μM SFLLRN
T10 construct: endogenous in cells; host or cells: gel-purified human platelets
From the text: Recently, the P2Y12 adenosine diphosphate (ADP) receptor was cloned by three independent groups (Hollopeter et al., Nature 409:202 (2001); Zhang et al., J. Biol. Chem. 276:8605 (2001); and Takasaki et al., Mol. Pharmacol. 60:432 (2001)) and shown to be the long-sought after target of the thienopyridine drugs clopidogrel and ticlopidine (Gachet et al., Biochem Pharmacol 40:2683 (1990); Mills et al., Arterioscler Thromb 12:430 (1992)). […] P2Y12 plays such a critical role in thrombus formation because it can modulate the strength of platelet-platelet adhesive interactions via multiple receptors such as PAR1. Inputs from P2Y12 stabilize the critical transition point of platelet-platelet aggregates during the progression from early reversible GPIIb-IIIa-fibrinogen binding to the late phase of irreversible binding to fibrinogen.
Aggregometry was performed by light scattering.

T1 sequence (P25103 whole entry): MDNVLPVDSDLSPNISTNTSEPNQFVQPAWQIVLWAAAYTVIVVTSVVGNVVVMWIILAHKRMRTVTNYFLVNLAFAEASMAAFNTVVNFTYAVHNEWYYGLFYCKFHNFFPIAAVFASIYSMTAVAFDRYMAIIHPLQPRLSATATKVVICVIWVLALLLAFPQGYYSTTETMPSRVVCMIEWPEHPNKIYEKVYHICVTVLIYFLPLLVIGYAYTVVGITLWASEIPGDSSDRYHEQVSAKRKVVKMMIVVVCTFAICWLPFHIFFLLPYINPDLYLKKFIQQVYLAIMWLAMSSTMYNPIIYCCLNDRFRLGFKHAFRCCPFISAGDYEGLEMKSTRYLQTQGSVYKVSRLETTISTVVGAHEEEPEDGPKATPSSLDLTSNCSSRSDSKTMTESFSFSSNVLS
T9 sequence (P32245 whole entry): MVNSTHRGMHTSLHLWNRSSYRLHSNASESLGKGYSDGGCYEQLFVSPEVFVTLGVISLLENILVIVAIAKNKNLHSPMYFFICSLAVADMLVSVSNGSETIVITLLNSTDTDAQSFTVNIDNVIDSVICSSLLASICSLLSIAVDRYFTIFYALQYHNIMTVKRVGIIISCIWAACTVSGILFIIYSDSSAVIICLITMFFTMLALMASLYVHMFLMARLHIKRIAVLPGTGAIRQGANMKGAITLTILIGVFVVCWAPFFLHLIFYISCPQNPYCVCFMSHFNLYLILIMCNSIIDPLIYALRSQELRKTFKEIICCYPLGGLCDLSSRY
T10 sequence (Q9H244 whole entry): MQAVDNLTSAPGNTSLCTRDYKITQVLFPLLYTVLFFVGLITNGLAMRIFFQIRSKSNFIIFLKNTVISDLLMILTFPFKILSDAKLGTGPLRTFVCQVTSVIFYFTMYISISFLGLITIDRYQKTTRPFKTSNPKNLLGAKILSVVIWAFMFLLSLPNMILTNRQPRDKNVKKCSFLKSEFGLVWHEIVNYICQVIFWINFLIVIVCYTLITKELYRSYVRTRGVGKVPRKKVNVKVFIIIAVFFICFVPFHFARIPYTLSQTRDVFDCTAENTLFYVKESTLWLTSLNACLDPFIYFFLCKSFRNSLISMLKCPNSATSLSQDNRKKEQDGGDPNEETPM
T4 sequence (P30680 whole entry): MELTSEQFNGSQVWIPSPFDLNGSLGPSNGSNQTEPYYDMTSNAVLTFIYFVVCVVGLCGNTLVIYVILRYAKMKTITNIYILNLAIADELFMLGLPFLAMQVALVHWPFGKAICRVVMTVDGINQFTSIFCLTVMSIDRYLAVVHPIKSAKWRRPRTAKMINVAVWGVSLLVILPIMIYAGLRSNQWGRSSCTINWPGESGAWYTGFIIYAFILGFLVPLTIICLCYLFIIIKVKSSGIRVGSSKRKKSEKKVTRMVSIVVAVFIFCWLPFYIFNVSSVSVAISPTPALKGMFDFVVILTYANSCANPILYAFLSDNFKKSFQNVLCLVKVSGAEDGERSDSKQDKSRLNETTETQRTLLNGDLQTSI

| Compound | activation of Sub-P receptor (InsP) [1] | activation of PAR4 (InsP) [3] | activation of SSTR2 (InsP) [4] | agonist activity in platelet aggregation [6] | activation of PAR2 (InsP) [7] | Agonist Efficacy [9] | InsP stimulation in the absence of the PAR1 receptor [10] | activation of CCKA (InsP) [13] | further results |
| --- | --- | --- | --- | --- | --- | --- | --- | --- | --- |
| CCCCCCCCCCCCCCCC(=O)N[C@@H](CCCNC(=N)N)C(=O)N[C@@H](CS)C(=O)N[C@@H](CC(C)C)C(=O)N[C@@H](CO)C(=O)N[C@@H](CO)C(=O)N[C@@H](CO)C(=O)N[C@@H](C)C(=O)N[C@H](C(=O)N[C@@H](C)C(=O)N[C@@H](CC(N)=O)C(=O)N[C@@H](CCCNC(=N)N)C(=O)N[C@@H](CO)C(=O)N[C@@H](CCCCN)C(=O)N[C@@H](CCCCN)C(=O)N[C@@H](CO)C(=O)N[C@@H](CCCNC(=N)N)C(=O)N[C@@H](C)C(=O)N[C@@H](CC(C)C)C(=O)N[C@@H](Cc1ccccc1)C(N)=O)C(C)C [Pepducin P1pal-19] (Palmitoyl-RCLSSSAVANRSKKSRALF-NH2) | does not activate | does not activate | does not activate | fully activates platelet aggregation | robustly activate PAR2; also recorded: can fully activate | 90 ± 2% | approximately 11% | does not activate | stimulation of CCKB, % of its maximal activity ([2]; maximum defined by 300 nM CCK-8): about 30%; agonist activity, platelet intracellular Ca2+ [5]: causes a rapid Ca^2+i transient; EC50 ([6]; read-out: EC50 of activation of platelet aggregation): 8 ± 3 µM; inhibition of PAR1-dependent Ca2+ response [8]: completely inhibits the subsequent Ca^2+i response; stimulation of untransfected Rat1 cells (Rat1 alone) ([10]; attributed to endogenous rat PAR1): minor stimulation; loss of efficacy on S309P mutant [11]: 4.3 fold; loss of potency on S309P mutant [11]: 13 fold; stimulation of PLC-beta with delta377 PAR1 mutant [12]: effectively no stimulation of PLC-beta |
| CCCCCCCCCCCCCCCC(=O)N[C@H](C(=O)NCC(=O)N[C@@H](C)C(=O)N[C@H](C(=O)N[C@@H](CCCNC(=N)N)C(=O)N[C@@H](CCC(N)=O)C(=O)NCC(=O)N[C@@H](C)C(=O)N[C@@H](CC(N)=O)C(=O)N[C@@H](CCSC)C(=O)N[C@@H](CCCCN)C(=O)NCC(=O)N[C@@H](C)C(=O)N[C@H](C(N)=O)[C@@H](C)CC)[C@@H](C)CC)[C@@H](C)O [MC4pal-14] (Palmitoyl-TGAIRQGANMKGAI-NH2) |  |  |  |  |  |  |  |  | IC50 ([14]; read-out: IC50, inhibitory phase): ~10 µM; stimulation of adenylate cyclase activity (efficacy) ([14]; relative to alpha-MSH): 40% |
| Y12pal-24: pepducin based on the i3-loop of P2Y12; peptide KELYRS YVRTRGVGKVPRKKVNVF (SEQ ID NO:34) (KELYRSYVRTRGVGKVPRKKVNVF; also: palmitoyl lipid, position not given here) [Pepducin Y12pal-24] |  |  |  | no agonist activity |  |  |  |  | inhibition of irreversible platelet aggregation ([15]; 0, 1, 3, or 10 μM pepducin): effective inhibitor of irreversible platelet aggregation; efficacy of inhibition compared with apyrase ([15]; 10 μM pepducin): equivalent in efficacy as addition of saturating amounts of apyrase |
| CCCCCCCCCCCCCCCC(=O)N[C@@H](C)C(=O)N[C@H](C(=O)N[C@@H](C)C(=O)N[C@@H](CC(N)=O)C(=O)N[C@@H](CCCNC(=N)N)C(=O)N[C@@H](CO)C(=O)N[C@@H](CCCCN)C(=O)N[C@@H](CCCCN)C(=O)N[C@@H](CO)C(=O)N[C@@H](CCCNC(=N)N)C(=O)N[C@@H](C)C(=O)N[C@@H](CC(C)C)C(=O)N[C@@H](Cc1ccccc1)C(N)=O)C(C)C [Pepducin P1pal-13] (Palmitoyl-AVANRSKKSRALF-NH2) | did not activate | did not activate | did not activate |  | did not activate | 60 − 88% | approximately 11% | did not activate | activation of CCKB (InsP) ([2]; COS7 cells): did not activate |
